Reference: US10785975B2, “Water and feed antimicrobial preservative” (priority 2009, dated 2020)
Like-named read-outs stand apart in the source and are kept apart here.

Experiments:
[1] = test system: Salmonella typhimurium; test: Example 2: effect of carbon chain length of individual organic acids on antimicrobial activity in water; format: cell-based; conditions: for killing at […] / killing at 0.05 % / killing at 0.075 % / killing at 0.1 %: Salmonella enterica, TYPHIMURIUM
Experimental: 100 ul of a nutrient broth culture of Salmonella typhimurium was added to each dilution tube. After addition, tubes were vortexed and allowed to stand. At 4 and 24 hours after addition of the inoculum, 100 ul of the solution was plated on agar (triplicate plates). Plates were incubated at 37° C. for 24 hours prior to enumeration. The minimum effective dose of each acid was be determined by linear regression: […]

[2] = test system: Salmonella typhimurium; test: Example 1: effect of pH buffering of acetic and propionic acid on antimicrobial activity in water; format: cell-based; conditions: for MIC at 4 Hr / MIC at 24 HR: Minimum Inhibitory Concentrations, by linear regression over 0.025-0.1% acid solutions
Experimental: Propionic and acetic acids were buffered with ammonium hydroxide to pHs ranging from 1 to 7. Acid contents of the buffered solutions were determined by a weight to weight ratio calculation to obtain the same acid content in the test solutions. […] The pHs of the deionized water solutions were recorded and any problems with solubility noted.
100 ul of a nutrient broth culture of Salmonella typhimurium was added to each dilution tube. After addition, tubes were vortexed and allowed to stand. At 4 and 24 hours after addition of the inoculum, 100 ul of the solution was plated on Standard Plate agar (triplicate plates). Plates were incubated at 37° C. for 24 hours prior to enumeration. The minimum effective dose of each acid was determined by linear regression.

[3] = Product Conc. 0.025 (% acid solution in water), 4 hr
[4] = Product Conc. 0.025 (% acid solution in water), 24 hr
[5] = Product Conc. 0.05 (% acid solution in water), 4 hr
[6] = Product Conc. 0.05 (% acid solution in water), 24 hr
[7] = Product Conc. 0.075 (% acid solution in water), 4 hr
[8] = Product Conc. 0.075 (% acid solution in water), 24 hr
[9] = Product Conc. 0.1 (% acid solution in water), 4 hr
[10] = Product Conc. 0.1 (% acid solution in water), 24 hr
[11] = 4 h, read-out: Salmonella at time Interval 4 hr % reduction
[12] = 24 h, read-out: Salmonella at time Interval 24 hr % reduction
[13] = Product Conc. 0.025 (% acid solution in water)
[14] = Product Conc. 0.05 (% acid solution in water)
[15] = Product Conc. 0.075 (% acid solution in water)
[16] = Product Conc. 0.1 (% acid solution in water)

| SMILES | Salmonella at time Interval 4 hr % reduction [2, 13] [%] | Salmonella at time Interval 4 hr cfu/g [2, 13] [cfu/g] | Salmonella at time Interval 24 hr % reduction [2, 13] [%] | Salmonella at time Interval 24 hr cfu/g [2, 13] [cfu/g] | Salmonella at time Interval 4 hr % reduction [2, 14] [%] | Salmonella at time Interval 4 hr cfu/g [2, 14] [cfu/g] | Salmonella at time Interval 24 hr % reduction [2, 14] [%] | Salmonella at time Interval 24 hr cfu/g [2, 14] [cfu/g] | Salmonella at time Interval 4 hr % reduction [2, 15] [%] | Salmonella at time Interval 4 hr cfu/g [2, 15] [cfu/g] | Salmonella at time Interval 24 hr % reduction [2, 15] [%] | Salmonella at time Interval 24 hr cfu/g [2, 15] [cfu/g] | Salmonella at time Interval 4 hr % reduction [2, 16] [%] | Salmonella at time Interval 4 hr cfu/g [2, 16] [cfu/g] | Salmonella at time Interval 24 hr % reduction [2, 16] [%] | Salmonella at time Interval 24 hr cfu/g [2, 16] [cfu/g] | also measured |
| --- | --- | --- | --- | --- | --- | --- | --- | --- | --- | --- | --- | --- | --- | --- | --- | --- | --- |
| CCCCCCCCC(=O)O [Pelargonic acid/KOH, Pelargonic acid] |  |  |  |  |  |  |  |  |  |  |  |  |  |  |  |  | Salmonella at time Interval 4 hr cfu/g [1, 3]: 7 cfu/g; Salmonella at time Interval 24 hr cfu/g [1, 4]: 0 cfu/g; Salmonella at time Interval 4 hr cfu/g [1, 5]: 0 cfu/g; Salmonella at time Interval 24 hr cfu/g [1, 6]: 0 cfu/g; Salmonella at time Interval 4 hr cfu/g [1, 7]: 0 cfu/g; Salmonella at time Interval 24 hr cfu/g [1, 8]: 0 cfu/g; Salmonella at time Interval 4 hr cfu/g [1, 9]: 0 cfu/g; Salmonella at time Interval 24 hr cfu/g [1, 10]: 0 cfu/g; killing at […] ([1]; Product Conc. 0.025 (% acid solution in water), 4 hr, read-out: Salmonella at time Interval 4 hr % reduction): 100%; killing at […] ([1]; Product Conc. 0.025 (% acid solution in water), 24 hr, read-out: Salmonella at time Interval 24 hr % reduction): 100%; killing at 0.05 % ([1]; Product Conc. 0.05 (% acid solution in water), 4 hr, read-out: Salmonella at time Interval 4 hr % reduction): 100%; killing at 0.05 % ([1]; Product Conc. 0.05 (% acid solution in water), 24 hr, read-out: Salmonella at time Interval 24 hr % reduction): 100%; killing at 0.075 % ([1]; Product Conc. 0.075 (% acid solution in water), 4 hr, read-out: Salmonella at time Interval 4 hr % reduction): 100%; killing at 0.075 % ([1]; Product Conc. 0.075 (% acid solution in water), 24 hr, read-out: Salmonella at time Interval 24 hr % reduction): 100%; killing at 0.1 % ([1]; Product Conc. 0.1 (% acid solution in water), 4 hr, read-out: Salmonella at time Interval 4 hr % reduction): 100%; killing at 0.1 % ([1]; Product Conc. 0.1 (% acid solution in water), 24 hr, read-out: Salmonella at time Interval 24 hr % reduction): 100% |
| CCCCCC(=O)O [Caproic acid] |  |  |  |  |  |  |  |  |  |  |  |  |  |  |  |  | MIC at 4 HR ([1]; Minimum Inhibitory Concentration of Organic Acids against Salmonella, by linear regression, 4 hr): 0.103; MIC at 24 FIR ([1]; Minimum Inhibitory Concentration of Organic Acids against Salmonella, by linear regression, 24 hours): 0.063; Salmonella at time Interval 4 hr cfu/g [1, 3]: 1267 cfu/g; Salmonella at time Interval 24 hr cfu/g [1, 4]: 30 cfu/g; Salmonella at time Interval 4 hr cfu/g [1, 5]: 1433 cfu/g; Salmonella at time Interval 24 hr cfu/g [1, 6]: 7 cfu/g; Salmonella at time Interval 4 hr cfu/g [1, 7]: 523 cfu/g; Salmonella at time Interval 24 hr cfu/g [1, 8]: 0 cfu/g; Salmonella at time Interval 4 hr cfu/g [1, 9]: 27 cfu/g; Salmonella at time Interval 24 hr cfu/g [1, 10]: 0 cfu/g; killing at 0.05 % [1, 11]: 10%; killing at 0.075 % [1, 11]: 67%; killing at 0.1 % [1, 11]: 98%; killing at […] [1, 11]: 21%; killing at 0.05 % [1, 12]: 100%; killing at 0.075 % [1, 12]: 100%; killing at 0.1 % [1, 12]: 100%; killing at […] [1, 12]: 98% |
| CC(=O)O [Acetic pH 5, Acetic acid] | 16 | 1267 | 16 | 993 | 0 | 1533 | 26 | 873 | 9 | 1367 | 32 | 805 | 14 | 1300 | 49 | 597 | MIC at 4 Hr ([2]; pH 5): 0.238; MIC at 24 HR ([2]; pH 5): 0.210 |
| CC(=O)O [Acetic pH 4, Acetic acid] | 29 | 1067 | 54 | 543 | 22 | 1167 | 66 | 407 | 27 | 1097 | 78 | 263 | 22 | 1167 | 84 | 183 | MIC at 4 Hr ([2]; pH 4): 0.207; MIC at 24 HR ([2]; pH 4): 0.096 |
| CC(=O)O [Acetic pH 6, Acetic acid] | 0 | 1500 | 1 | 1167 | 0 | 1767 | 0 | 1400 | 0 | 1667 | 0 | 1400 | 0 | 1633 | 0 | 1433 |  |
| CC(=O)O [Acetic pH 2, Acetic acid] | 39 | 920 | 86 | 170 | 46 | 817 | 96 | 50 | 55 | 673 | 98 | 20 | 55 | 670 | 99 | 17 | MIC at 4 Hr ([2]; pH 2): 0.142; MIC at 24 HR ([2]; pH 2): 0.067 |
| CCC(=O)O [Propionic pH 7, Propionic acid] | 0 | >1505 | 0 | 1667 | 0 | 1700 | 0 | 1367 | 0 | >1505 | 0 | 1700 | 0 | 1600 | 0 | 1367 |  |
